What is called melting point is the temperature of the solid-liquid transition. `CCCCN(C#N)C(=O)C(C)Oc1ccc(Oc2nc3ccc(Cl)cc3o2)cc1` (configuration not stated) came in with a melting point of 91 to 92 °C.

For `O=C1c2cccc(-c3ccccc3)c2C2NCCN12` (configuration not stated), the melting point was in the range of 155 to 157 °C. On to `Oc1cc(C(F)(F)F)nc2cc(C(F)(F)F)ccc12`, for which the melting point was 184 to 185 °C. For `CCC(CC)Nc1c(NCc2cc(C)cc(C#N)c2)c(=O)c1=O`, the melting point lay within 248 to 250 °C. The compound `N#Cc1ccc(CC(NC(=O)C(Cc2ccccc2)S(=O)(=O)Nc2ccc3ccccc3c2)C(=O)N2CCCCC2)cc1` (configuration not stated) showed a melting point of 210 °C.

Regarding `CCOC(=O)c1ncn2c1C(C)N=C(c1ccccc1)c1cc(C#C[Si](C)(C)C)ccc1-2` (configuration not stated), the melting point lay in the range of 160 to 162 °C. For `O=[N+]([O-])c1ccc(Oc2ccc(N3CCN(c4ccncc4)CC3)cc2)nc1`, the melting point lay in the range of 174 to 175 °C. For the compound `N#Cc1ccccc1CN1CCC(=O)C(C(c2ccc(F)cc2)c2ccc(F)cc2)C1` (configuration not stated), the melting point lay in the range of 83 to 84 °C. In turn, `CS(=O)(=O)c1cccc(NC(=O)c2cnn3c(C(F)(F)F)cc(-c4ccc(Cl)c(Cl)c4)nc23)c1` returned a melting point of 263 °C.

In turn, `CCOC(=O)C(C#N)C(=O)c1nn(-c2ccccc2)c2c1CSc1ccccc1-2` (configuration not stated) gave a melting point of 176 to 178 °C. Compound `Cc1ccc(S(=O)(=O)Nc2cccc(-c3nnc(-c4ccc(C(=O)O)cc4)o3)c2)cc1` displayed a melting point of over 275 °C. For `Cc1nnc(-c2ccccc2)c2nc(OCc3ncnn3C)c(C3CCC3)n12` the value was 160 °C; for `CSC(=N)c1cc(Oc2ccc(C(F)(F)F)cc2Cl)ccc1[N+](=O)[O-]`, 103 °C. For `CCOC(=O)c1cnc2c(N)cccc2c1` the value was 94 to 96 °C; for `COC(=O)c1ccccc1C1(c2ccccc2)OCC(CCl)O1` (configuration not stated), 90 to 91 °C. `COc1cc2c(cc1OC)/C(=N/OCc1ccc3nonc3c1)CCC2` returned a melting point of 139 to 140 °C. With `COC1OC(CO)C(O)C(OC)C1O` (configuration not stated), the melting point lay in the range of 56 to 58 °C. Take `CC(C)(C)C(O)(COc1ccc(F)cc1)C(C)(F)n1cncn1` (configuration not stated): the melting point lay in the range of 90 to 93 °C. `O=C(O)c1ccc2c(c1)C(=C(Cl)Cl)OC(=C(Cl)Cl)O2` displayed a melting point of 199 to 200 °C. Regarding `CC(C)(C)c1cc(CP(=O)(O)c2ccccc2)cc(C(C)(C)C)c1O`, the melting point lay in the range of 185 to 186 °C. For the compound `COC(=O)CC(C#N)c1ccc(OC)c(OC2CCCC2)c1` (configuration not stated), the melting point fell in the range of 69 to 71 °C. The compound `COc1ccc(-c2nc(N)c(C(N)=O)nc2-c2ccc(=O)n(C(C)C)c2)cc1` had a melting point of 244 °C. For `CCOP(=O)(OCC)c1nc(N(CC)CC)nc(N(CC)CC)n1` the value was 45 to 46 °C; for `CCOC(=O)c1c(CCc2ccc(C(F)(F)F)cc2)nc2c(c1-c1ccc(C(=O)N[C@@H](C)c3ccncc3)cc1)C(=O)N1CCC[C@@H]21`, 158 to 160 °C. For `CCCCc1nc2c(N)nc3cc(-c4ccccc4OCCC)ccc3c2n1CC(C)C`, the melting point fell in the range of 174 to 176 °C.

Consider `Cc1nc2ccccc2c(NCCO)c1Br`, for which the melting point is 154 to 155 °C. Compound `COc1ccccc1[C@H](c1cccc2ccccc12)[C@@](C)(C#N)C(=O)N1CCN(c2ccc(Cl)cc2)CC1` showed a melting point of 178 to 180 °C. In the case of `CC(C)[C@H](NC(=O)Cc1csc(N(C)C)n1)C(=O)N[C@@H](Cc1ccccc1)C[C@H](O)[C@H](Cc1ccccc1)NC(=O)Cc1cncs1`, the melting point lay in the range of 162 to 165 °C. The result for `CC1(C)CC(=O)C(F)C(C)(C)C1` (configuration not stated) reads 27 to 31 °C; that for `C[C@@H]1C[C@H](CC2CCCCC2)C(=O)O1` (relative stereo), 60 to 62 °C; that for `CCOC(=O)C1=C(C)NC(C=NO)=C(C(=O)OCC)C1c1ccccc1Cl` (configuration not stated), 136 to 137 °C.

Consider `N#Cc1ccc(-c2ccc(-c3ccn([C@H](CC(=O)O)C(=O)N[C@H](CO)Cc4ccccc4)c3)cc2)cc1`, for which the melting point fell in the range of 189 to 192 °C. For `COc1cccc(Sc2ccnc(Nc3cccc(CN)c3)n2)c1`, the melting point fell in the range of 120 to 121 °C. The result for `Clc1c(Br)cncc1Br` reads 101 to 103 °C; that for `CCN(c1ccc(C#N)cc1[N+](=O)[O-])S(=O)(=O)c1ccc(Cl)s1`, 102 to 103 °C. `O=C1Nc2c(cc([N+](=O)[O-])cc2[N+](=O)[O-])C1c1ncnc2nn(C3CCCC3)cc12` (configuration not stated) gave a melting point of over 300 °C. The result for `COC(=O)C(CC(N)C(=O)O)CC(N)N1C=CC=CC1` (configuration not stated) reads 240 to 242 °C. `CNC(=O)N(O)C(C)c1ccc(Cl)cc1` (configuration not stated) returned a melting point of 117 to 120 °C. For `O=C(Nc1ccc(C(F)(F)F)cc1)Nc1nc(OCC(F)(F)F)cc(OCC(F)(F)F)n1` the value was 167 to 168 °C; for `CCCCN(CCCC)C(=O)/C=C/c1ccc(Cn2c(-c3ccc(O)cc3)c(C)c3cc(O)ccc32)cc1`, 126 to 128 °C; for `CN1OC(COCc2ccc(Cl)cc2)CC1(Cn1ccnc1)c1ccc(Cl)cc1` (configuration not stated), 97 to 100 °C. For `O=[N+]([O-])c1ccc(OCc2ccc(F)cc2)cc1F` the value was 90 to 91 °C; for `COC(=O)c1nc(-c2ccc([Si](C)(C)C)c(F)c2F)c(F)c(N)c1OC`, 123 to 125 °C; for `O=C(OCC=C(c1ccccc1)[N+](=O)[O-])C(F)(F)C(F)(F)C(F)(F)C(F)(F)C(F)(F)C(F)(F)C(F)(F)F`, 79 to 81 °C. The result for `COC(=O)C(c1ccc(Cl)cc1)C(OC)OC` (configuration not stated) reads 61 to 62 °C; that for `CCC1(C)CC(=O)C(C(=O)Nc2cc(C(F)(F)F)cc(C(F)(F)F)c2)C(=O)C1` (configuration not stated), 72 to 73 °C; that for `O=Cc1cc(-c2ncc(C(F)(F)F)cc2Cl)ccc1Cl`, 94 °C. On to `O=c1[nH][nH]c(=O)n1-c1c(F)c(F)c(F)c(F)c1F`, for which the melting point fell in the range of 180 to 182 °C. `CCN(C)c1nsc(N)c1C#N`: the melting point lay within 94 to 95 °C.

Regarding `CC(C)(C)OC(=O)N(OCc1ccccc1)C(=O)OC(C)(C)C`, the melting point is 77.5 to 78.5 °C.

On to `CCCCCCCCCCCCCCN(C(=O)CCCCCCCCCCC)C1(N)OC(CO)C(O)C(O)C1C(=O)C(N)C(=O)C(N)CO` (configuration not stated), for which the melting point was in the range of 141 to 143 °C. Compound `COC(=O)c1cc2c(Br)csc2nc1C(=O)OC` displayed a melting point of 86 to 87.5 °C.

`CC(=O)NC(Cc1ccc(CC(=O)OC(C)(C)C)cc1)C(=O)OCc1ccccc1` (configuration not stated): the melting point was in the range of 170 to 172 °C. With `CCOC(=O)c1ccc(C#CC(O)c2cc(-c3ccccc3)cc3c2C(C)(C)CCC3(C)C)cc1` (configuration not stated), the melting point was 121 °C. `OC12CC3CC(O)(C1)CC(O)(C3)C2` came in with a melting point of 217 °C. Turning to `CN1CC(CNC(=N)NC(=O)c2ccccc2)CC2c3cccc4[nH]cc(c34)CC21` (configuration not stated), the melting point was 190 to 191 °C. The result for `CNC1=NS(=O)(=O)N=C1NCCSCc1cnc(CN(C)C)s1` reads 170 to 172 °C; that for `N#Cc1ccc2c(c1)CCN(C1CCC3(CC1)OCCO3)C2`, 127 °C.

As to `CC(C)(C#N)Cc1ccc(CC(C)(C)C#N)cc1`, the melting point was in the range of 192 to 194 °C.

`Oc1ccc(C(O)CNCCCn2cnc3ccccc32)cc1` (configuration not stated): the melting point was in the range of 146 to 148 °C. In turn, `O=C1c2ccc(Cl)cc2CC1Sc1ccccc1` (configuration not stated) yielded a melting point of 89 °C. Compound `N#Cc1ccc(-c2ccccc2)c(NC(=O)Nc2cccnc2)c1` came in with a melting point of 180 to 182 °C.

These data come from a melting point compilation (Tetko et al.; mined from patent text by program, amines drawn as free bases though some values may be those of a salt).
